In general, EC50 refers to the concentration that produces a half-maximal response.

One assay addresses T1, full-length WT STING (Homo sapiens, UniProt Q86WV6, H232R).
T1 construct: made in house; host or cells: Trichoplusia ni insect cells, baculovirus generated in Sf21; crude membranes
The assay is described as follows: 3H-cGAMP filtration binding assay (WT STING). Particulars: competition with tritiated cGAMP ligand; T. ni cell membranes overexpressing full-length WT STING. The method, then:
The ability of compounds to bind STING is quantified by their ability to compete with tritiated cGAMP ligand for human STING receptor membrane using a radioactive filter-binding assay. The binding assay employs STING receptor obtained from Trichoplusia ni cell membranes (T. ni; Expression Systems, cat #94-002F, www.expressionsystems.com) overexpressing full-length WT STING and tritiated cGAMP ligand.
The basic WT STING filtration assay protocol is as follows:
16 nM of [^3H] c-GAMP ligand was prepared by diluting into assay buffer, and 50 uL of this working stock was manually added to each well of the assay plate. After ligand addition, 2 uL of either titrated test compound, DMSO control (Sigma #276855), or cold cGAMP control was added to the appropriate wells using a BIOMEK FX. The serially titrated compound was prepared on a Hamilton STARPlus CORE in a 96-well plate (Greiner, #651201) using a 1:3 ten-point dose response format. Following compound addition, a 2.2 ug/ml working concentration of STING membrane (SEQ. ID. No. 3) was prepared by diluting concentrated membrane into assay buffer (1×PBS; Invitrogen #SH30028.02) and douncing 7× using a manual tissue homogenizer (Wheaton, #357546). 148 uL of this prepared membrane was then manually added to each well of a 96-well deep-well polypropylene plate (Fisher Scientific, #12-566-121). Compound, ligand, and membrane then incubated for 60 min at RT before the contents of each assay plate were filtered through a 96-well GF/B filter plate (PerkinElmer, #6005250) using a TOMTEC MACH III Cell Harvester equipped with 20 mM HEPES buffer (Fisher Scientific, #BP299500). The filter plates were then dried at 55° C. for 30 min using a pressurized VWR oven before 30 uL of ULTIMA GOLD F scintillate was added to each well. Tritium levels for each reaction well were then measured using a PerkinElmer TopCount plate reader.
After normalization to controls, the percent activity for each compound concentration was calculated by measuring the amount of remaining radioactivity. The plot of percent activity versus the log of compound concentration was fit with a 4-parameter dose response equation to calculate EC50 values.

Assay [1] relates to IFN-β secretion from THP1 cells. The assay is described as follows: IFN-β secretion in THP1 cell culture (5 h). Particulars: Homo sapiens, THP-1, 5 h, THP1 cells, 5 h incubation, compound at 30 μM; 30 uM cGAMP = 100%; read-out: % Effect at 30 μM relative to 2′3′-cGAMP. The assay is classed as cell-based, human. The gist of the method:
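THP1 cells at 0.8×10^6/mL were incubated with compounds for 5 h at 37 °C, and secreted IFN-β in the supernatant was measured by AlphaLISA. Percent effect was normalised to 30 uM cGAMP (positive) and 0.3% DMSO (negative) controls. EC50 came from a 4-parameter fit.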

The next assay has as its target T2, full-length HAQ STING (Homo sapiens, UniProt Q86WV6, G230A/H232R/R293Q/R71H).
T2 construct: made in house; host or cells: Trichoplusia ni (Hi-Five) insect cells, baculovirus generated in Sf21; crude membranes
The assay is described as follows: 3H-cGAMP filtration binding assay (HAQ STING). Particulars: competition with tritiated cGAMP ligand; T. ni cell membranes overexpressing full-length HAQ STING.

T1 sequence (Q86WV6 with tags, fused parts or gaps H232R): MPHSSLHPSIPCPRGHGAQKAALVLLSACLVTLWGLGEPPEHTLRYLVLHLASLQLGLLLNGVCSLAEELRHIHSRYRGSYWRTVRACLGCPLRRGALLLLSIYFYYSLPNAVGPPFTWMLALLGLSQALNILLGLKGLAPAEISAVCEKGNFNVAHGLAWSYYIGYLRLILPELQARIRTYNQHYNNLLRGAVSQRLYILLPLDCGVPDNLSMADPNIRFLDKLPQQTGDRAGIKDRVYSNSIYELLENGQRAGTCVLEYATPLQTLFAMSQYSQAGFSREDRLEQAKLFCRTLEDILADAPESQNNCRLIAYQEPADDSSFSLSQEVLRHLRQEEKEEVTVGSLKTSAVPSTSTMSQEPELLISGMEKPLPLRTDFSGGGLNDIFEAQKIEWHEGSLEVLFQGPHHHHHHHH
T2 sequence (Q86WV6 with tags, fused parts or gaps R71H/G230A/H232R/R293Q): as the sequence (Q86WV6 with tags, fused parts or gaps H232R) above, with R71H, G230A, R293Q counted along it

`Nc1nc2c(ncn2[C@@H]2O[C@@H]3CO[P@](=O)(S)O[C@H]4[C@H](F)[C@H](n5ccc6c(=O)[nH]cnc65)O[C@@H]4CO[P@@](=O)(S)O[C@@H]2C3)c(=O)[nH]1` [Example 41, 2-amino-9-[(2R,5S,7R,8R,10R,12aR,14R,15S,15aR)-15-fluoro-2,10-dioxido-14-(4-oxo-3,4-dihydro-7H-pyrrolo[2,3-d]pyrimidin-7-yl)-2,10-disulfanyl-octahydro-12H-5,8-methanofuro[3,2-l] [1,3,6,9,11,2,10]pentaoxadiphosphacyclotetradecin-7-yl]-l,9-dihydro-6H-purin-6-one]: the EC50 stood at 124 nM at full-length WT STING and 2 nM at full-length HAQ STING. Further, the activation at 30 µM in assay [1] stood at 156%.
On to `Nc1nc2c(nnn2[C@@H]2O[C@@H]3COP(=O)(S)O[C@H]4[C@H](F)[C@H](n5ccc6c(=O)[nH]cnc65)O[C@@H]4COP(=O)(S)O[C@@H]2C3)c(=O)[nH]1` (stereo partly drawn) [Example 45, 5-amino-3-[(5S,7R,8R,12aR,14R,15S, 15aR)-15-fluoro-2,10-dioxido-14-(4-oxo-3,4-dihydro-7H-pyrrolo[2,3-d]pyrimidin-7-yl)-2,10-disulfanyl-octahydro-12H-5,8-methanofuro[3,2-l][1,3,6,9,11,2,10]pentaoxadiphosphacyclotetradecin-7-yl]-3,6-dihydro-7H-[1,2,3]triazolo[4,5-d]pyrimidin-7-one], for which the EC50 came out at 85 nM on full-length WT STING and 3 nM on full-length HAQ STING. Besides, the activation at 30 µM in assay [1] was 135%.
For the compound `Nc1nc2c(nnn2[C@@H]2O[C@@H]3COP(=O)(S)O[C@H]4[C@H](F)[C@H](n5ccc6c(=O)[nH]cnc65)O[C@@H]4COP(=O)(S)O[C@@H]2[C@H]3F)c(=O)[nH]1` (stereo partly drawn) [Example 48, 5-amino-3-[(5R,7R,8S,12aR,14R,15S,15aR,16S)-15,16-difluoro-2,10-dioxido-14-(4-oxo-3,4-dihydro-7H-pyrrolo[2,3-d]pyrimidin-7-yl)-2,10-disulfanyl-octahydro-12H-5,8-methanofuro[3,2-l] [1,3,6,9,11,2,10]pentaoxadiphosphacyclotetradecin-7-yl]-3,6-dihydro-7H-[1,2,3]triazolo[4,5-d]pyrimidin-7-one], the 50% effective concentration (EC50) at full-length WT STING was found to be 205 nM; on full-length HAQ STING it was 2 nM. In addition, the activation at 30 µM in assay [1] turned out to be 159%.

These data come from US11685761B2, “Cyclic di-nucleotide compounds as sting agonists” (Merck Sharp & Dohme Corp., priority 2017, dated 2023).
